Laboratory results published in paper PMC6327987, “Synthesis and biological evaluation of novel N^9-heterobivalent β-carbolines as angiogenesis inhibitors” (Journal of Enzyme Inhibition and Medicinal Chemistry, 2019).
Where two headings read alike, the source gives them in different places.

Legend:
BGC-823 = experiment: MTT cytotoxicity, gastric carcinoma cells; type: cell-based; settings: MTT assay, gastric carcinoma BGC-823, mean ± SD of at least three determinations
Procedure: (§1) Target compounds were assayed by the MTT method for cytotoxic activity, as described previously. The panel of cell lines included gastric carcinoma (BGC-823), liver carcinoma (HepG2), breast carcinoma (MCF-7), colon carcinoma (HT-29), esophageal carcinoma (Eca-109), and Lewis lung carcinoma (LLC). Growth inhibition rates were calculated with the following equitation: Inhibition ratio (%)= ODcompd−ODblank/ODDMSO−ODblank×100% . Half maximal inhibitory concentration (IC50) of each compound was calculated using software Graph-Pad Prism (version 6.0).
(§2) All the 24 novel synthesized N^9-heterobivalent β-carbolines (5a-x) were screened for their in vitro cytotoxic activities against six different cancer cell lines, namely BGC-823 (gastric carcinoma), HepG2 (liver carcinoma), MCF-7 (breast carcinoma), HT-29 (colon carcinoma), Eca-109 (esophageal carcinoma) and LLC (Lewis lung carcinoma). The IC50 values were the average of at least three independent experiments.

Eca-109 = experiment: MTT cytotoxicity, esophageal carcinoma cells; type: cell-based; settings: esophageal carcinoma Eca-109, mean ± SD of at least three determinations
Procedure: as §1, §2

HepG2 = experiment: MTT cytotoxicity, liver carcinoma cells; type: cell-based; settings: MTT assay, liver carcinoma HepG2, mean ± SD of at least three determinations
Procedure: as §1, §2

MCF-7 = experiment: MTT cytotoxicity, breast carcinoma cells; type: cell-based; settings: MTT assay, breast carcinoma MCF-7, mean ± SD of at least three determinations
Procedure: as §1, §2

HT-29 = experiment: MTT cytotoxicity, colon carcinoma cells; type: cell-based; settings: MTT assay, colon carcinoma HT-29, mean ± SD of at least three determinations
Procedure: as §1, §2

LLC = experiment: MTT cytotoxicity, Lewis lung carcinoma cells; type: cell-based; settings: MTT assay, mean ± SD of at least three determinations
Procedure: as §1, §2

[1] = Homo sapiens, ECa-109, MTT assay

SMILES	IC50 (BGC-823; Homo sapiens)	melting point	IC50 (Eca-109; [1])	IC50 (HepG2; Homo sapiens)	IC50 (MCF-7; Homo sapiens, MCF7)	IC50 (HT-29; Homo sapiens)	IC50 (LLC; Lewis lung carcinoma)	IC50 (Eca-109; MTT assay)	IC50 (LLC)	IC50 (BGC-823)	IC50 (HepG2)	IC50 (MCF-7; read-out: IC50 (μM) ±SD MCF7)	IC50 (HT-29)
COc1ccc2c3ccnc(C)c3n(CCCCCn3c4ccccc4c4ccnc(-c5cccs5)c43)c2c1 [Compound 5x, 7-methoxy-1-methyl-9–(5-(1–(2-thienyl)-β-carboline-9-yl)pentyl)-β-carboline]	> 100 µM	196.1 to 197.4 °C	46.7 ± 6.9 µM	> 100 µM	41.6 ± 5.3 µM	> 100 µM	12.2 ± 3.7 µM	–	–	–	–	–	–
COc1ccc(-c2nccc3c4ccccc4n(CCCCn4c5ccccc5c5ccnc(-c6cccnc6)c54)c23)cc1OC [Compound 5l, 1–(3,4-dimethoxyphenyl)-9–(4-(1–(3-pyridyl)-β-carboline-9-yl)butyl)-β-carboline]	> 100 µM	239.8 to 240.5 °C	93.2 ± 7.1 µM	79.5 ± 12.3 µM	> 100 µM	91.1 ± 10.6 µM	46.8 ± 6.4 µM	–	–	–	–	–	–
Clc1ccccc1-c1nccc2c3ccccc3n(CCCCn3c4ccccc4c4ccnc(-c5cccs5)c43)c12 [Compound 5r, 1–(2-chlorophenyl)-9–(4-(1–(2-thienyl)-β-carboline-9-yl)butyl)-β-carboline]	> 100 µM	225.4 to 227.2 °C	96.7 ± 11.9 µM	> 100 µM	60.7 ± 4.8 µM	96.2 ± 5.1 µM	> 100 µM	–	–	–	–	–	–
Cc1nccc2c3ccccc3n(CCCCCn3c4ccccc4c4ccnc(-c5ccccc5Cl)c43)c12 [Compound 5j, 1–(2-chlorophenyl)-9–(5-(1-methyl-β-carboline-9-yl)pentyl)-β-carboline]	> 100 µM	169.1 to 171.2 °C	< 20 µM	> 100 µM	46.8 ± 3.7 µM	24.1 ± 2.2 µM	< 20 µM	18.6 ± 2.1 µM	16.6 ± 3.1 µM	–	–	–	–
COc1cc(-c2nccc3c4ccccc4n(CCCCn4c5ccccc5c5ccnc(-c6cccs6)c54)c23)cc(OC)c1OC [Compound 5q, 1–(3,4,5-trimethoxyphenyl)-9–(4-(1–(2-thienyl)-β-carboline-9-yl)butyl)-β-carboline]	> 100 µM	226.5 to 227.8 °C	> 100 µM	> 100 µM	> 100 µM	> 100 µM	> 100 µM	–	–	–	–	–	–
Cc1nccc2c3ccccc3n(CCCCn3c4ccccc4c4ccnc(-c5cccs5)c43)c12 [Compound 5f, 1–(2-thienyl)-9–(4-(1-methyl-β-carboline-9-yl)butyl)-β-carboline]	38.8 ± 2.9 µM	214.8 to 216 °C	64.1 ± 7.6 µM	> 100 µM	46.6 ± 4.8 µM	56.1 ± 4.2 µM	–	–	–	–	–	–	–
Clc1ccccc1-c1nccc2c3ccccc3n(CCCCn3c4ccccc4c4ccnc(-c5cccnc5)c43)c12 [Compound 5n, 1–(2-chlorophenyl)-9–(4-(1–(3-pyridyl)-β-carboline-9-yl)butyl)-β-carboline]	> 100 µM	177.6 to 178.9 °C	> 100 µM	> 100 µM	86.9 ± 15.3 µM	72.2 ± 5.2 µM	> 100 µM	–	–	–	–	–	–
c1csc(-c2nccc3c4ccccc4n(CCCCn4c5ccccc5c5ccncc54)c23)c1 [Compound 5e, 1–(2-thienyl)-9–(4-(β-carboline-9-yl)butyl)-β-carboline]	> 100 µM	141.6 to 143.1 °C	> 100 µM	> 100 µM	> 100 µM	18.1 ± 3.6 µM	32.3 ± 4.5 µM	–	–	–	–	–	–
COc1ccc(-c2nccc3c4ccccc4n(CCCCn4c5ccccc5c5ccnc(-c6cccnc6)c54)c23)cc1 [Compound 5k, 1–(4-methoxyphenyl)-9–(4-(1–(3-pyridyl)-β-carboline-9-yl)butyl)-β-carboline]	> 100 µM	241.2 to 242.4 °C	> 100 µM	> 100 µM	> 100 µM	> 100 µM	> 100 µM	–	–	–	–	–	–
COc1cc(-c2nccc3c4ccccc4n(CCCCn4c5ccccc5c5ccnc(-c6cccnc6)c54)c23)cc(OC)c1OC [Compound 5m, 1–(3,4,5-trimethoxyphenyl)-9–(4-(1–(3-pyridyl)-β-carboline-9-yl)butyl)-β-carboline]	> 100 µM	231 to 232.3 °C	70.9 ± 8.4 µM	85.1 ± 11.6 µM	> 100 µM	> 100 µM	> 100 µM	–	–	–	–	–	–
COc1ccc(-c2nccc3c4ccccc4n(CCCCn4c5ccccc5c5ccnc(-c6cccs6)c54)c23)cc1OC [Compound 5p, 1–(3,4-dimethoxyphenyl)-9–(4-(1–(2-thienyl)-β-carboline-9-yl)butyl)-β-carboline]	> 100 µM	217.2 to 218.4 °C	> 100 µM	> 100 µM	> 100 µM	> 100 µM	> 100 µM	–	–	–	–	–	–
Cc1nccc2c3ccccc3n(CCCCCCn3c4ccccc4c4ccnc(-c5cccs5)c43)c12 [Compound 5h, 1–(2-thienyl)-9–(6-(1-methyl-β-carboline-9-yl)hexyl)-β-carboline]	> 100 µM	238.5 to 239.6 °C	30.2 ± 3.4 µM	> 100 µM	75.9 ± 9.4 µM	47.8 ± 6.5 µM	30.2 ± 1.5 µM	–	–	–	–	–	–
COc1ccc2c3ccnc(C)c3n(CCCCn3c4ccccc4c4ccnc(C)c43)c2c1 [Compound 5s, 7-methoxy-1-methyl-9–(4-(1-methyl-β-carboline-9-yl)butyl)-β-carboline]	17.9 ± 1.1 µM	188.7 to 189.4 °C	11.3 ± 2.7 µM	37.6 ± 5.8 µM	36.4 ± 2.1 µM	11.1 ± 0.8 µM	6.2 ± 0.6 µM	–	–	–	–	–	–
c1cncc(-c2nccc3c4ccccc4n(CCCCn4c5ccccc5c5ccncc54)c23)c1 [Compound 5a, 1–(3-pyridyl)-9–(4-(β-carboline-9-yl)butyl)-β-carboline]	> 100 µM	173.3 to 175.1 °C	> 100 µM	39.1 ± 5.4 µM	> 100 µM	> 100 µM	> 100 µM	–	–	–	–	–	–
COc1ccc2c3ccnc(C)c3n(CCCCCn3c4ccccc4c4ccnc(-c5cccnc5)c43)c2c1 [Compound 5v, 7-methoxy-1-methyl-9–(5-(1–(3-pyridyl)-β-carboline-9-yl)pentyl)-β-carboline]	23.2 ± 1.5 µM	183.6 to 184.9 °C	13.2 ± 3.6 µM	31.1 ± 3.4 µM	18.7 ± 0.5 µM	13.5 ± 2.2 µM	11.8 ± 1.8 µM	–	–	–	–	–	–
N.N.[Cl][Pt][Cl] [Cisplatin, reference compound]	–	–	–	–	–	–	–	8.9 ± 0.6 µM	7.6 ± 0.4 µM	11.6 ± 0.7 µM	14.8 ± 0.4 µM	12.4 ± 0.7 µM	26.8 ± 1.4 µM
COc1ccc2c3ccnc(C)c3n(CCCCn3c4ccccc4c4ccnc(-c5cccnc5)c43)c2c1 [Compound 5u, 7-methoxy-1-methyl-9–(4-(1–(3-pyridyl)-β-carboline-9-yl)butyl)-β-carboline]	39.1 ± 2.4 µM	163.8 to 164.5 °C	25.2 ± 5.5 µM	26.8 ± 2.8 µM	23.9 ± 0.7 µM	15.1 ± 3.1 µM	12.2 ± 2.3 µM	–	–	–	–	–	–
